Source: ChEMBL document CHEMBL3792312, “Synthesis and docking studies of pyrazine-thiazolidinone hybrid scaffold targeting dormant tuberculosis” (Bioorg Med Chem Lett, 2016)
In brackets after ≈: the same amount, converted by molar mass.

How the values were obtained:
[1] = tested on: Mycobacterium tuberculosis; test: Antitubercular activity against dormant Mycobacterium bovis BCG after at 3 ug 12 days by nitrate reductase assay; assay type: functional, variant bovis BCG
[2] = tested on: Mycobacterium tuberculosis; test: Antitubercular activity against dormant Mycobacterium bovis BCG after 12 days by nitrate reductase assay; assay type: functional, organism-based; details: variant bovis BCG, 288 h
[3] = tested on: Mycobacterium tuberculosis; test: Antitubercular activity against dormant Mycobacterium bovis BCG after at 30 ug 12 days by nitrate reductase assay; assay type: functional, variant bovis BCG
[4] = tested on: Mycobacterium tuberculosis; test: Antitubercular activity against dormant Mycobacterium bovis BCG after at 10 ug 12 days by nitrate reductase assay; assay type: functional, variant bovis BCG

Row | Structure (SMILES) | inhibition (INH) [1] | IC50 [2] | MIC [2] | inhibition (INH) [3] | inhibition (INH) [4]
1 | COc1cc([C@@H]2SCC(=O)N2NC(=O)c2cnc(C)cn2)ccc1O | 3.203% | 5.1 µg/mL (≈ 14.2 µM) | 12.2 µg/mL (≈ 34 µM) | 98.03% | 81.1965%
2 | CCOc1cc([C@@H]2SCC(=O)N2NC(=O)c2cnc(C)cn2)ccc1O | -10.8481% | 9.46 µg/mL (≈ 25.3 µM) | 15.9 µg/mL (≈ 42.5 µM) | 97.31% | 34.91%
3 | COc1ccc([C@H]2SCC(=O)N2NC(=O)c2nccnc2N)cc1OC | 3.112% | 23.4 µg/mL (≈ 62.5 µM) | 29.2 µg/mL (≈ 77.9 µM) | 94.4% | 25.35%
4 | Cc1cnc(C(=O)NN2C(=O)CS[C@@H]2c2cccc([N+](=O)[O-])c2)cn1 | 10.69% | 9.89 µg/mL (≈ 27.5 µM) | 18.5 µg/mL (≈ 51.5 µM) | 96.43% | 88.47%
5 | Nc1nccnc1C(=O)NN1C(=O)CSC1c1ccccc1 (stereo not drawn) | 11.98% | 12.9 µg/mL (≈ 40.9 µM) | 24.4 µg/mL (≈ 77.4 µM) | 97.97% | 30.74%
6 | Nc1nccnc1C(=O)NN1C(=O)CSC1c1ccc(Cl)cc1Cl (stereo not drawn) | 22.55% |  |  | 56.5348% | 27.48%
7 | O=C(NN1C(=O)CS[C@@H]1c1ccc(Cl)cc1)c1cnccn1 | 43.58% | 3.26 µg/mL (≈ 9.74 µM) | 8.48 µg/mL (≈ 25.3 µM) | 96.24% | 91.85%
8 | Nc1nccnc1C(=O)NN1C(=O)CSC1c1cccc([N+](=O)[O-])c1 (stereo not drawn) | 47.21% |  |  | 64.92% | 38.85%
9 | Nc1nccnc1C(=O)NN1C(=O)CSC1c1ccc(F)cc1 (stereo not drawn) | 12.4938% |  |  | 63.72% | 26.63%
10 | CN(C)c1ccc(C2SCC(=O)N2NC(=O)c2nccnc2N)cc1 (stereo not drawn) | 26.9022% |  |  | 32.8615% | 44.99%
11 | COc1ccc(C2SCC(=O)N2NC(=O)c2cnc(C)cn2)cc1OC (stereo not drawn) | -15.2185% |  |  | 96.436% | 14.41%
12 | NNC(=O)c1ccncc1 [ISONIAZID] |  |  | 0.045 µg/mL (≈ 0.328 µM) |  | 
13 | Nc1nccnc1C(=O)NN1C(=O)CSC1c1ccc(Cl)cc1 (stereo not drawn) | 22.09% |  |  | 76.11% | 46.72%
14 | Cc1cnc(C(=O)NN2C(=O)CSC2c2ccc(Cl)cc2)cn1 (stereo not drawn) | 44.18% |  |  | 61.87% | 48.01%
15 | Nc1nccnc1C(=O)NN1C(=O)CS[C@H]1c1ccc([N+](=O)[O-])cc1 | 45.89% |  |  | 96.67% | 34.04%
16 | NC(=O)c1cnccn1 [PYRAZINAMIDE] |  |  | > 100 µg/mL |  | 
17 | CO[C@H]1/C=C/O[C@@]2(C)Oc3c(C)c(O)c4c(O)c(c(/C=N/N5CCN(C)CC5)c(O)c4c3C2=O)NC(=O)/C(C)=C\C=C\[C@H](C)[C@H](O)[C@@H](C)[C@@H](O)[C@@H](C)[C@H](OC(C)=O)[C@@H]1C [RIFAMPIN] |  | 0.004 µg/mL (≈ 0.00486 µM) | 0.04 µg/mL (≈ 0.0486 µM) |  | 
18 | Cc1cnc(C(=O)NN2C(=O)CSC2c2ccccc2)cn1 (stereo not drawn) | 34.12% |  |  | 96.6% | -6.383%
19 | Nc1nccnc1C(=O)NN1C(=O)CSC1c1ccc(O)cc1 (stereo not drawn) | 14.76% |  |  | 82.99% | 45.87%
20 | Cc1cnc(C(=O)NN2C(=O)CS[C@H]2c2ccc(N(C)C)cc2)cn1 | 30.06% | 21.8 µg/mL (≈ 61 µM) | 29.4 µg/mL (≈ 82.3 µM) | 92.16% | 75.69%
21 | Cc1cnc(C(=O)NN2C(=O)CSC2c2ccc(O)cc2)cn1 (stereo not drawn) | -7.23% |  |  | 77.54% | -17.5884%
22 | O=C(NN1C(=O)CSC1c1ccc(O)cc1)c1cnccn1 (stereo not drawn) | 9.989% |  |  | 54.42% | 16.47%
23 | Cc1cnc(C(=O)NN2C(=O)CS[C@@H]2c2ccc([N+](=O)[O-])cc2)cn1 | -13.1407% | 23.4 µg/mL (≈ 65.3 µM) | 28.8 µg/mL (≈ 80.1 µM) | 97.76% | 56.74%
24 | O=C(NN1C(=O)CS[C@@H]1c1ccc([N+](=O)[O-])cc1)c1cnccn1 | 24.09% | 4.93 µg/mL (≈ 14.3 µM) | 9.38 µg/mL (≈ 27.2 µM) | 98.6% | 92.72%
25 | CCOc1cc([C@H]2SCC(=O)N2NC(=O)c2nccnc2N)ccc1O | 30.79% | 23.4 µg/mL (≈ 62.4 µM) | 29.4 µg/mL (≈ 78.4 µM) | 97.5903% | 23.79%
26 | COc1ccc(C2SCC(=O)N2NC(=O)c2cnc(C)cn2)cc1 (stereo not drawn) | -16.0935% |  |  | 88.13% | 66.73%
